System: CN0375-F725-PDC KRAS spheroid viability
Experiment: Anticancer human tumor CN0375-F725-PDC patient-derived colon carcinoma cell line growth inhibition [KRAS2]
Conditions: spheroids with HUVEC and MSC; for IC50: curve of first compound; for viability, T/C: stronger effect = lower value
In short: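 KRAS-mutant tumor cells were grown as spheroids with HUVEC endothelial cells and human MSCs as stroma. Targeted agents were tested alone and with KRAS pathway inhibitors. Doses started at or near clinical Cmax, or 10 microM, descending half-log.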

[1] = second compound 0.1 µM, first compound 0.0316 µM
[2] = second compound 0.1 µM, first compound 0.1 µM
[3] = second compound 0.1 µM, first compound 0.316 µM
[4] = second compound 0.1 µM, first compound 1 µM
[5] = second compound 0.1 µM, first compound 3.16 µM
[6] = second compound 0.1 µM, first compound 10 µM
[7] = second compound 0.316 µM, first compound 0.0316 µM
[8] = second compound 0.316 µM, first compound 0.1 µM
[9] = second compound 0.316 µM, first compound 0.316 µM
[10] = second compound 0.316 µM, first compound 1 µM
[11] = second compound 0.316 µM, first compound 3.16 µM
[12] = second compound 0.316 µM, first compound 10 µM
[13] = second compound 1 µM, first compound 0.0316 µM
[14] = second compound 1 µM, first compound 0.1 µM
[15] = second compound 1 µM, first compound 0.316 µM
[16] = second compound 1 µM, first compound 1 µM
[17] = second compound 1 µM, first compound 3.16 µM
[18] = second compound 1 µM, first compound 10 µM
[19] = second compound 3.16 µM, first compound 0.0316 µM
[20] = second compound 3.16 µM, first compound 0.1 µM
[21] = second compound 3.16 µM, first compound 0.316 µM
[22] = second compound 3.16 µM, first compound 1 µM
[23] = second compound 3.16 µM, first compound 3.16 µM
[24] = second compound 3.16 µM, first compound 10 µM
[25] = second compound 10 µM, first compound 0.0316 µM
[26] = second compound 10 µM, first compound 0.1 µM
[27] = second compound 10 µM, first compound 0.316 µM
[28] = second compound 10 µM, first compound 1 µM
[29] = second compound 10 µM, first compound 3.16 µM
[30] = second compound 10 µM, first compound 10 µM
[31] = second compound 0.1 µM, first compound 0.000316 µM
[32] = second compound 0.1 µM, first compound 0.001 µM
[33] = second compound 0.1 µM, first compound 0.00316 µM
[34] = second compound 0.1 µM, first compound 0.01 µM
[35] = second compound 0.316 µM, first compound 0.000316 µM
[36] = second compound 0.316 µM, first compound 0.001 µM
[37] = second compound 0.316 µM, first compound 0.00316 µM
[38] = second compound 0.316 µM, first compound 0.01 µM
[39] = second compound 1 µM, first compound 0.000316 µM
[40] = second compound 1 µM, first compound 0.001 µM
[41] = second compound 1 µM, first compound 0.00316 µM
[42] = second compound 1 µM, first compound 0.01 µM
[43] = second compound 3.16 µM, first compound 0.000316 µM
[44] = second compound 3.16 µM, first compound 0.001 µM
[45] = second compound 3.16 µM, first compound 0.00316 µM
[46] = second compound 3.16 µM, first compound 0.01 µM
[47] = second compound 10 µM, first compound 0.000316 µM
[48] = second compound 10 µM, first compound 0.001 µM
[49] = second compound 10 µM, first compound 0.00316 µM
[50] = second compound 10 µM, first compound 0.01 µM
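Note: spheroids exposed to agents for 7 days.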

SMILES	IC50 (second compound 0.1 µM) [µM]	IC50 (second compound 0.316 µM) [µM]	IC50 (second compound 1 µM) [µM]	IC50 (second compound 3.16 µM) [µM]	IC50 (second compound 10 µM) [µM]	viability, T/C [1] [%]	viability, T/C [2] [%]	viability, T/C [3] [%]	viability, T/C [4] [%]	viability, T/C [7] [%]	viability, T/C [8] [%]	viability, T/C [9] [%]	viability, T/C [10] [%]	viability, T/C [13] [%]	viability, T/C [14] [%]	viability, T/C [15] [%]	viability, T/C [19] [%]	viability, T/C [20] [%]	viability, T/C [25] [%]	viability, T/C [26] [%]	further results
CC(C)NCC(C(=O)N1CCN(c2ncnc3c2C(C)CC3O)CC1)c1ccc(Cl)cc1 (stereo not given) + CC1OCC2(CCN(c3cnc(Sc4ccnc(N)c4Cl)c(N)n3)CC2)C1N	> 10	> 10	> 10	> 10	5.95	100	95.9	94.4	88.7	93.6	93.5	89.9	82	90.5	88.7	84.3	87.4	83.9	71.3	68.3	viability, T/C [5]: 87.7%; viability, T/C [6]: 71.7%; viability, T/C [11]: 81.6%; viability, T/C [12]: 70.8%; viability, T/C [16]: 74.8%; viability, T/C [17]: 75.9%; viability, T/C [18]: 66.2%; viability, T/C [21]: 76.5%; viability, T/C [22]: 70.3%; viability, T/C [23]: 63.2%; viability, T/C [24]: 56.5%; viability, T/C [27]: 62.3%; viability, T/C [28]: 54.9%; viability, T/C [29]: 56.4%; viability, T/C [30]: 46.3%
CC(C)n1nc(-c2ccc3oc(N)nc3c2)c2c(N)ncnc21 + CC1OCC2(CCN(c3cnc(Sc4ccnc(N)c4Cl)c(N)n3)CC2)C1N	0.0581	0.0422	0.0331	0.0263	0.00776	54.2	45.7	–	–	54.6	43.2	–	–	51	40.5	–	46.9	37.9	39.9	33.8	viability, T/C [31]: 91.6%; viability, T/C [32]: 89.6%; viability, T/C [33]: 73.9%; viability, T/C [34]: 68.6%; viability, T/C [35]: 84.5%; viability, T/C [36]: 84.9%; viability, T/C [37]: 73.1%; viability, T/C [38]: 60.7%; viability, T/C [39]: 82.5%; viability, T/C [40]: 81.7%; viability, T/C [41]: 68.6%; viability, T/C [42]: 61.5%; viability, T/C [43]: 74.6%; viability, T/C [44]: 74.3%; viability, T/C [45]: 67.5%; viability, T/C [46]: 57.3%; viability, T/C [47]: 63.8%; viability, T/C [48]: 65%; viability, T/C [49]: 56.4%; viability, T/C [50]: 47.5%
CC1(C)CCC(CN2CCN(c3ccc(C(=O)NS(=O)(=O)c4ccc(NCC5CCOCC5)c([N+](=O)[O-])c4)c(Oc4cnc5[nH]ccc5c4)c3)CC2)=C(c2ccc(Cl)cc2)C1 + CC1OCC2(CCN(c3cnc(Sc4ccnc(N)c4Cl)c(N)n3)CC2)C1N	3.49	2.76	2.6	2.13	1.61	103	100	104	103	95.4	100	94.6	95.8	90.7	91.5	89.9	84.4	87.1	67.7	73.2	viability, T/C [5]: 51.6%; viability, T/C [6]: 31.6%; viability, T/C [11]: 43.8%; viability, T/C [12]: 25.1%; viability, T/C [16]: 86.3%; viability, T/C [17]: 42.5%; viability, T/C [18]: 22.2%; viability, T/C [21]: 87.4%; viability, T/C [22]: 82.8%; viability, T/C [23]: 32.9%; viability, T/C [24]: 13.9%; viability, T/C [27]: 77.2%; viability, T/C [28]: 69.6%; viability, T/C [29]: 22%; viability, T/C [30]: 8.8%
CCN1CCN(Cc2ccc(Nc3ncc(F)c(-c4cc(F)c5nc(C)n(C(C)C)c5c4)n3)nc2)CC1 + CC1OCC2(CCN(c3cnc(Sc4ccnc(N)c4Cl)c(N)n3)CC2)C1N	> 1	> 1	> 1	> 1	> 1	81.4	88.2	95.7	92.8	67.3	74.6	89.3	84.9	72.6	75.2	82.9	68.1	66.6	60.4	61.1	viability, T/C [33]: 92.9%; viability, T/C [34]: 83.3%; viability, T/C [37]: 84.9%; viability, T/C [38]: 82.2%; viability, T/C [41]: 82.3%; viability, T/C [42]: 80%; viability, T/C [16]: 81.7%; viability, T/C [45]: 72.2%; viability, T/C [46]: 74.8%; viability, T/C [21]: 75.1%; viability, T/C [22]: 68.8%; viability, T/C [49]: 65.8%; viability, T/C [50]: 69.3%; viability, T/C [27]: 70.4%; viability, T/C [28]: 53.3%
Cn1ncnc1[C@H]1c2n[nH]c(=O)c3cc(F)cc(c23)N[C@@H]1c1ccc(F)cc1 + CC1OCC2(CCN(c3cnc(Sc4ccnc(N)c4Cl)c(N)n3)CC2)C1N	> 0.1	> 0.1	> 0.1	> 0.1	> 0.1	99.2	90.3	–	–	92.5	81	–	–	82.1	80	–	75.5	78.2	61.1	61.2	viability, T/C [31]: 103%; viability, T/C [32]: 95.2%; viability, T/C [33]: 93.4%; viability, T/C [34]: 91.6%; viability, T/C [35]: 97.5%; viability, T/C [36]: 87.3%; viability, T/C [37]: 87.8%; viability, T/C [38]: 85.2%; viability, T/C [39]: 88.4%; viability, T/C [40]: 89.5%; viability, T/C [41]: 83.5%; viability, T/C [42]: 86.3%; viability, T/C [43]: 79.5%; viability, T/C [44]: 80.4%; viability, T/C [45]: 81%; viability, T/C [46]: 76.3%; viability, T/C [47]: 70.9%; viability, T/C [48]: 72.7%; viability, T/C [49]: 67.2%; viability, T/C [50]: 63.9%

Source: PubChem BioAssay AID1963860 (Molecular Pharmacology Branch, DTP, NCI, 2024)
